Laboratory results as given in US7163924B2, “Ketolide derivatives” (Chiron Corporation, priority 2003, dated 2007).
Read-outs that look alike come from different tables or passages of the source.

Assay: In vivo pharmacokinetic studies of pyridyl substituted ketolides in rats (plasma and whole lung, LC-MS-MS)
Conditions: male Sprague-Dawley rats; for clearance / Vd / AUC / bioavailability / half-life / Kp: rat; for clearance / Vd: IV = 5 mg/kg, PO = 15 mg/kg; for clearance: read-out: CL (clearance of the compound from plasma); for Vd: read-out: Vss (volume of distribution); for bioavailability: read-out: F, PO (% bioavailability); for Kp: whole lung vs plasma, read-out: L/P ratio, IV (ratio of drug in lung/plasma after IV dosing)
Protocol: Animal Models. A total of 54 male Sprague-Dawley rats, weighing 200 grams in average, are evaluated for pharmacokinetic studies of representative substituted pyridyl ketolides. Rats are under overnight food restriction and receive water ad libitum. Rats are acclimated for approximately 5 days before antibiotic administration. Antibiotic Administration. Rats are given bolus administration through intravenous (IV) and oral (PO) routes. Representative substituted pyridyl ketolides and telithromycin, for comparison, are diluted in 0.85% saline to a concentration of 15.0 mg/ml, and the resulting pH is adjusted using 1N acetic acid until the compound is in solution. Approximately 200 μl of the compound solution is administered to the rats. The target dose for IV and PO administration is 5 mg/kg and 15 mg/kg, respectively. Sample Collection. Plasma and whole lung samples are collected from the rats. Plasma samples are obtained from blood samples by centrifugation at 3000 RPM for 10 min. Heparin is added in the plasma as an anticoagulant. Whole lung samples are homogenized in deionized water. Samples are stored at −80° C. A total of 9 time points are collected in triplicate at 0.083, 0.25, 0.5, 1, 2, 4, 6, 8, and 24 h. Ketolide concentrations in plasma and lung are determined by well-established non-GLP LC-MS-MS methods. PK parameters are estimated from the raw bioanalytical data using WinNolin software (Version 4.0, Pharsight Corporation, CA). All representative compounds are compared to telithromycin.

[1] = plasma, PO 15 mg/kg vs IV 5 mg/kg
[2] = IV bolus 5 mg/kg, plasma, read-out: t1/2, IV Plasma (converted)
[3] = PO 15 mg/kg, plasma, read-out: t1/2, PO Plasma (converted)

## CC[C@H]1OC(=O)[C@H](C)C(=O)[C@H](C)[C@@H](OC2O[C@H](C)C[C@H](N(C)C)[C@H]2O)[C@@](C)(OC)C[C@@H](C)C(=O)[C@H](C)[C@H]2N(CCCCn3cnc(-c4ccc(OC)nc4)c3)C(=O)O[C@]12C (some centres unmarked) [Cmpd D]
plasma
  clearance: 25 mL/min/kg
  Vd: 4.3 L/kg
plasma, IV bolus 5 mg/kg
  AUC: 3000 ng·h/mL
[1]
  bioavailability: 100%
[2]
  half-life: 2.1 h
IV bolus 5 mg/kg
  Kp: 32

## CC[C@H]1OC(=O)[C@H](C)C(=O)[C@H](C)[C@@H](O[C@@H]2O[C@H](C)C[C@H](N(C)C)[C@H]2O)[C@@](C)(OC)C[C@@H](C)C(=O)[C@H](C)[C@H]2N(CCCCn3cnc(-c4ccc(Cl)nc4)c3)C(=O)O[C@]12C [Cmpd E]
plasma
  clearance: 38 mL/min/kg
  Vd: 5.6 L/kg
plasma, IV bolus 5 mg/kg
  AUC: 2200 ng·h/mL
[1]
  bioavailability: 86%
[2]
  half-life: 1.6 h
IV bolus 5 mg/kg
  Kp: 29
[3]
  half-life: 3.3 h

## CC[C@H]1OC(=O)[C@H](C)C(=O)[C@H](C)[C@@H](O[C@@H]2O[C@H](C)C[C@H](N(C)C)[C@H]2O)[C@@](C)(OC)C[C@@H](C)C(=O)[C@H](C)[C@H]2N(CCCCn3cnc(-c4ccc(C)nc4)c3)C(=O)O[C@]12C [Cmpd B]
plasma
  clearance: 48 mL/min/kg
  Vd: 6.5 L/kg
plasma, IV bolus 5 mg/kg
  AUC: 1700 ng·h/mL
[1]
  bioavailability: 54%
[2]
  half-life: 1.8 h
IV bolus 5 mg/kg
  Kp: 27
[3]
  half-life: 3.3 h

## CC[C@H]1OC(=O)[C@H](C)C(=O)[C@H](C)[C@@H](O[C@@H]2O[C@H](C)C[C@H](N(C)C)[C@H]2O)[C@](C)(OC)C[C@@H](C)C(=O)[C@H](C)[C@H]2N(CCCCn3cnc(-c4cccnc4)c3)C(=O)O[C@]12C [Telithromycin, telithromycin, reference compound]
IV bolus 5 mg/kg, plasma
  t1/2, IV Plasma: 1.0 h
PO 15 mg/kg vs IV 5 mg/kg
  F, PO (% bioavailability): 11%
PO 15 mg/kg, plasma
  t1/2, PO Plasma: 1.5 h
plasma
  clearance: 100 mL/min/kg
  Vd: 5 L/kg
IV bolus 5 mg/kg
  Kp: 16
